Values quoted from earlier work in PMC9683570.
Counter-ions that a name gives are not always drawn. Like-named read-outs stand apart in the source and are kept apart here.

Tests used:
L-type Ca2+ channels = tested on: L-type Ca2+ channels; design: method as in PMID 17909749; conditions: from 22°C to 37°C
[1] = tested on: hCaV1.2α, β2, α2δ1 subunits; design: method as in PMID 30151907; conditions: IonWorks Barracuda, ambient temperature, […] Ca2+, current at 0 mV step, 10 s interval, rundown adjusted; read-out: IC50 (Li et al. 2018)
[2] = design: method as in DrugBank; conditions: predicted, based on ChemAxon; ref DrugBank
NaV1.5 channels = conditions: similar concentrations as tested on CaV1.2
Ca2+ current (L-type) = conditions: peak current inhibited less potently than late current at end of step depolarization
CaV1.2, α2δ, β2a [3] = conditions: 22–25 °C, 20 Ba2+
L-type Ca2+ current [4] = tested on: L-type Ca2+ current; design: method as in PMID 19367686; conditions: 20–25 °C, 10 Ca2+
hCaV1.2, β2, α2δ = conditions: ambient, 1.8 Ca2+
[5] = tested on: CaVAb (voltage-dependent Ca2+-selective channel); conditions: 13 Ba2+
CaV1.2, α2δ, β2a [6] = conditions: ~25 °C
CaV1.2, α2δ, β1b = conditions: read-out: IC50 (± SE); RT, 10 Ba2+
[7] = tested on: CaV1.2, α2δ, β2a along with Kir2.3; conditions: 30 Ba2+
L-type Ca2+ current [8] = conditions: RT (22–25 °C), 2 Ca2+
hCav1.2 = tested on: hCav1.2; design: method as in PMID 23651875; conditions: RT

In the case of COC(=O)C1=C(C)NC(C)=C(C(=O)OC)C1c1ccccc1[N+](=O)[O-] [nifedipine], the “increase in block potency on raising the recording temperature” value (L-type Ca2+ channels) is given as 7 X.

For CC(C)COCC(CN(Cc1ccccc1)c1ccccc1)N1CCCC1 (stereo not drawn) [Bepridil], the IC50 [1] is listed as 638 µM and the “Log P” value [2] is listed as 5.49.

For O=C1CC[C@@]2(O)[C@H]3Cc4ccc(O)c5c4[C@@]2(CCN3CC2CC2)[C@H]1O5 [Naltrexone, naltrexone hydrochloride], the “nH on the peak and the late current” value (NaV1.5 channels) is given as ≥ 0.8.

In the case of COCCOC(=O)C1=C(C)NC(C)=C(C(=O)OC(C)C)C1c1cccc([N+](=O)[O-])c1 (stereo not drawn) [nimodipine], the “difference in the IC50s, peak vs late Ca2+ current” value (Ca2+ current (L-type)) is listed as 13.1 X.

In the case of Cc1nccn1CC1CCc2c(c3ccccc3n2C)C1=O (stereo not drawn) [Ondansetron], the IC50 [1] is given as 9310 µM and the “Log P” value [2] is given as 2.35.

For Cc1c(-c2ccccc2)oc2c(C(=O)OCCN3CCCCC3)cccc2c1=O [flavoxate], the “increase in block potency on raising the recording temperature” value (L-type Ca2+ channels) is given as 2.2 X.

For CC(C)(C)c1ccc(C(O)CCCN2CCC(C(O)(c3ccccc3)c3ccccc3)CC2)cc1 (stereo not drawn) [Terfenadine], the IC50 [1] is given as […] and the “Log P” value [2] is given as 6.48.

In the case of CN(C)CCCN1c2ccccc2Sc2ccc(Cl)cc21 [Chlorpromazine], the IC50 [1] is given as 6.35 µM and the “Log P” value [2] is given as 4.54.

In the case of C=CCN1CC[C@]23c4c5ccc(O)c4O[C@H]2C(=O)CC[C@@]3(O)[C@H]1C5 [Naloxone, Naloxone hydrochloride], the “nH on the peak and the late current” value (NaV1.5 channels) is listed as ≥ 0.8.

For COc1ccc([C@@H]2Sc3ccccc3N(CCN(C)C)C(=O)[C@@H]2OC(C)=O)cc1 [Diltiazem, diltiazem hydrochloride], the IC50 [1] is listed as 31.6 µM, the IC50 (CaV1.2, α2δ, β2a [3]) is listed as 85 ± 9 µM and the IC50 (L-type Ca2+ current [4]) is listed as 30 µM. The IC50 (hCaV1.2, β2, α2δ) was 0.76 ± 0.08 µM, the “nH (± SE)” value (hCaV1.2, β2, α2δ) was 1.14 ± 0.15 and the IC50 ([5]; 20 ms single pulse from -120 mV, read-out: IC50, resting state block) was 41 µM. For the same molecule, the IC50 ([5]; 20 pulses at 1 Hz from -120 mV, read-out: IC50, use-dependent block) was 10.4 µM, the IC50 (CaV1.2, α2δ, β2a [6]; 5 mM Ba2+, read-out: IC50 (± SE) (Ba2+) (converted)) was 109 µM and the IC50 (CaV1.2, α2δ, β2a [6]; 1.8 Ca2+, read-out: IC50 (± SE) (Ca2+)) was 250 ± 16 µM. For the same molecule, the IC50 (CaV1.2, α2δ, β1b) was 65 ± 13 µM, the IC50 ([7]; read-out: IC50 (automated), PatchXpress 7000A, 22–26 °C) was 36 µM and the IC50 ([7]; read-out: IC50 (manual), manual, 20–25 °C) was 44 µM. For the same molecule, the nH (L-type Ca2+ current [8]) was 0.77 and the IC50 (L-type Ca2+ current [8]; read-out: IC50 (± SE)) was 0.63 ± 0.05 µM.

For COc1ccc(CCN(C)CCCC(C#N)(c2ccc(OC)c(OC)c2)C(C)C)cc1OC (racemic) [Verapamil, (±)-verapamil hydrochloride], the IC50 [1] is listed as […], the IC50 (L-type Ca2+ current [4]) is listed as 0.79 µM and the “nH (± SE)” value (hCaV1.2, β2, α2δ) is listed as 0.80 ± 0.11. For the same molecule, the IC50 ([5]; 20 pulses at 1 Hz, read-out: IC50 (± SE)) was […], the pIC50 (hCav1.2) was […] and the IC50 (hCav1.2; converted from pIC50) was […].
